Patent US20250073354A1, “COMPOSITIONS AND METHODS FOR DELIVERY OF AGENTS TO INNER EAR” (University of Rochester, priority 2021, published 2025)
“Also recorded” adds a separate entry of the source.

Columns and labels:
[1] = mouse, in vivo
Procedure: Briefly, mice were anesthetized with a mixture of Ketamine/Xylazine (100 mg/kg, 10 mg/kg, respectively), after depth of anesthesia was confirmed by the cessation of reflexes, the incision area was properly shaved and sterilized with the aid of ethanol 70% swabs (Vitrex Medical A/S Herlev, DK), followed by iodine solution (Povidone Iodine 7,5% Henry Schein, Melville, NY, USA) applicated using cotton swabs. Before the onset of surgery, analgesics were applied, Lidocaine (0.05 ml, 0.2 mg/ml) was applied in the incision site and Buprenorphine (0.05 mg/kg) injected subcutaneously for post-surgical analgesia. After performing the skin incision around the occipital crest, the neck muscles were separated to reveal the CM underneath. […]
Immediately after the CM cannulation procedure, animals were moved to MRI scanner and head movement during scanning was minimized by restraining the animals on an MR-compatible stereotactic holder with ear bars. Body temperature was maintained at 37±0.5° C. with a thermostatically controlled waterbed and monitored, along with the respiratory rate by an MR compatible remote monitoring system (SA Instruments, NY, USA). […] Every 3D-CISS image was calculated as a maximum intensity projection from 4 realigned 3D-TrueFISP volumes with 4 orthogonal phase encoding directions (TR/TE 3.9/1.95 ms, Nex 2, FA 50°, FOV 19.2×12.8×12.8 mm, Matrix 192×128×128, BW 150 kHz). […]
Both DCE-MRI and CT time series data were motion corrected using Advanced Normalization Tools (ANTs ver.2.1.0) (Avants et al., 2008; Avants et al., 2011). Motion corrected time series in MRI images were converted into percent change from baseline-time series, calculated as the percent signal change from the averaged signal of baseline images.

[2] = CT time series of CSF tracer transport to the cochlea after intracisternal infusion; format: in vivo, mouse
Procedure: During the CM cannulation procedure a custom-made head bar was fixed on the top of the animal skull. The head bar was designed to minimize undesired movements during the image acquisition (Yoshida et al., 2016), and fixed to an animal holder. […] Animal's respiration was monitored by using Biovet software. CT scans were performed with the Vector4CT system (MILabs, Utrecht, Netherlands) and scanning of the entire mouse head was performed in 4.56 min at an isotropic spatial resolution of 20 μm. The time series CT scanning protocol comprised one baseline scan (4.5 min) followed by intracisternal infusion of Omnipaque (350 mg I/ml, 1 μL/min, 10 μL, GE healthcare). Scans continued over 6 measurements (30 min) after intracisternal infusion of Omnipaque.
The time-intensity data was extracted using ITK snap with the ROIs described above after background subtraction and then normalized to maximal cisterna magna intensity. Dimensions of cochlear aqueduct were measured using the #X feature in ITK snap for #four animals. Distances between ROIs were calculated using their spatial coordinates.
To solve the equation (#ref), inventors implemented a simple finite difference scheme in Python (#ref) using NumPy and Scipy (#ref). Estimation of the dispersion coefficient was achieved by minimizing the L2-norm prediction error, using Scipy (#ref) E: […]

Time activity curves for tracer influx in mice lacking aqp4 [1]	Time to reach 50 max [1]	Tracer distribution to cochlea [1]	SMILES	Tracer concentration in scala vestibuli or cochlear nerve ([2]; during the 30 min of scanning)	Tracer distribution to scala tympani ([2]; intracisternal delivery, continuous CT scanning)
did not differ from wild type animals	significantly higher in the cochlea	reaches the cochlea	O=C([O-])CN1CCN(CC(=O)[O-])CCN([C@H](CO)[C@H](O)CO)CCN(CC(=O)[O-])CC1.[Gd+3] (racemic) [Gadovist, gadobutrol]	–	–
–	–	–	CC(=O)N(CC(O)CO)c1c(I)c(C(=O)NCC(O)CO)c(I)c(C(=O)NCC(O)CO)c1I (centres unmarked) [Omnipaque]	No clear rise; also recorded: no significant tracer arrives	reaches the base and middle region of the scala tympani
